One block for each compound: values may come before it.
Key:
[1] = system: HEK-293-derived cells; experiment: Cell viability, CellTiter-glo, HEK-293-derived cells; parameters: species or system human; conditions: HEK-293-derived cell-based assay conditions
Description: For cell viability, cells are incubated with compound for 90 minutes at 37 °C. Following this incubation, 25 μL Cell Titer-Glo (Promega) was added to the plates which were then analyzed on the Envision (luminescence).

[2] = system: HEKNaCT cells; experiment: OCR and ECAR measurements in HEKNaCT cells incubated with citrate (Seahorse); format: cell-based, human; conditions: 30 μM compound
Description: HEKNaCT cells were plated at 12,000 cells/well onto a poly-d-lysine coated XF96 plate (Sigma, Seahorse Biosciences). Cells were plated in culture media containing HG DMEM, 10% FBS, 2 mM glutamine, 1 mM pyruvate, 0.5 mg/mL Geneticin, and 1% penicillin/streptomycin (Life Technologies) and incubated overnight at 37 °C. The following day, the media was changed to Seahorse Biosciences assay medium (Seahorse Biosciences) supplemented with 10 mM glucose and 2 mM pyruvate (Sigma). The plate was pre-incubated for 1 hour in a 37 °C air incubator. […]

[3] = Intra-/extracellular unbound concentration ratio (Kpuu) in human hepatocytes; format: in vitro ADME; conditions: cryopreserved hepatocytes, ratio of free intracellular and media concentration after 1 h incubation at 1 μM, geometric mean of 3 replicates ± SD
Description: (§1) kpuu values were determined by measuring total cell and media concentrations corrected for their respective fraction unbound. Detailed methods to determine intra- and extracellular concentrations of compound in the HEKNaCT cells and human hepatocytes will be the subject of a separate manuscript that is under preparation. […]
(§2) Intra- and extracellular concentrations of compound in cellular assays. kpuu values were determined by measuring total cell and media concentrations corrected for their respective […]
(§3) fraction unbound. […]
(§4) The solution was heated to reflux until the total volume was reduced to ~25 mL.
(§5) Hexane (25 mL) was added and the mixture was brought back to reflux than allowed to slowly cool to room temperature. After standing at room temperature for 16 h, the resulting suspension was filtered and dried under high vacuum to yield (S)-2-(4-(tert-butyl)phenethyl)-2-hydroxysuccinic acid (3) as a white solid. The filtrate was allowed to stand at room temperature for 4 days. The solvent evaporated to ~15 mL and large, colorless crystals formed.
(§6) X-ray analysis. Data collection was performed on a Bruker APEX diffractometer at room temperature. Data collection consisted of 3 omega scans and low angle and three at high angle; each with 0.5 step. In addition, 2 phi scans were collected to improve the quality of the […]

[4] = Intra-/extracellular unbound concentration ratio (Kpuu) in HEKNaCT cells; format: in vitro ADME; conditions: human, ratio of free intracellular and media concentration after 1 h incubation at 1 μM, geometric mean of 3 replicates ± SD
Description: as §1, §2, §3, §4, §5, §6

[5] = system: human hepatocytes; experiment: Incorporation of [14C]-citrate into triglycerides by human hepatocytes; format: cell-based; conditions: radiolabeled citrate for 24 hours
Description: Incorporation of [^14C]-citrate into triglycerides by human hepatocytes was measured using the same procedure as above except cells were incubated with the radioactive citrate for 24 hours. Subsequently, the media was aspirated and 100 μL of isopropyl alcohol:THF (9:1) was added. The plate was shaken for 15 minutes, centrifuged at 3000 revolutions per minute for 5 minutes, and 50 μL of supernatant from each well was applied per TLC lane (Whatman LK6D Silica Gel Plates). Radiolabeled lipids were resolved using a 2-solvent system: Solvent 1 contained a 100:100:100:40:36 mixture of ethyl acetate:isopropyl alcohol:CHCl3:MeOH:0.25% KCl and Solvent 2 a 70:27:3 hexane:diethyl ether:acetic acid mixture. The TLC plate was dried under nitrogen for 30 minutes and [^14C]-standards added to a vacant lane. Bands were visualized and quantitated using a Molecular Dynamics’ Storm 860 PhosphorImager system following 18–36 hours exposure to a Phosphorimager screen.

[6] = target: T1, NaDC3 (SLC13A3) (Homo sapiens, UniProt Q8WWT9); experiment: Inhibition of citrate or succinate uptake in HEKNaDC3 cells; format: cell-based; conditions: compound 4: mean of 2 replicates
T1 construct: host or cells: HEK-293, transient (Fugene HD)
T1 sequence (Q8WWT9 1-602): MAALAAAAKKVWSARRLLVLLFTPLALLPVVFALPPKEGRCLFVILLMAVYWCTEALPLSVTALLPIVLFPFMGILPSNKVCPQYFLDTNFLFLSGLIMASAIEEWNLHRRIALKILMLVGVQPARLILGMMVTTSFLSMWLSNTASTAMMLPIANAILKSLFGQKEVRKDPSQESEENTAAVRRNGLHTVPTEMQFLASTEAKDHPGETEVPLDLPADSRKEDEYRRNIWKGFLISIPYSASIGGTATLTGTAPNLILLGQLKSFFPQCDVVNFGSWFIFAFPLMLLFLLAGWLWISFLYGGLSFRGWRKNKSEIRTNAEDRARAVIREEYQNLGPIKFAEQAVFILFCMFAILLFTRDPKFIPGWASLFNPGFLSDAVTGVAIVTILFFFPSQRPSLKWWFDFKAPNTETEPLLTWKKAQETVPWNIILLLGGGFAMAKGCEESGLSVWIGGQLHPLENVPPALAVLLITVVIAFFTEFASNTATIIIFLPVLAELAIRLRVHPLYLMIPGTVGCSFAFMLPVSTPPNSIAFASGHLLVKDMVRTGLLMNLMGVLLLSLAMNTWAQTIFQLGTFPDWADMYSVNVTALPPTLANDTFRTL
Source text: (§7) Protocols to generate the stable cell line overexpressing NaCT or cell transfection with SLC13A2 or SLC13A3 can be found in the supporting information. HEK-293 cells stably transfected with the human sodium Citrate transporter SLC13A5 or transiently transfected with the human SLC13A2 or SLC13A3 transporter were removed from the flasks with dissociation buffer and re-suspended in an equal volume of growth media (DMEM, High Glucose supplemented with 10% heat inactivated fetal bovine serum and 500 μg/ml Geneticin). For the transient transfections, Geneticin was eliminated from the media. Cell suspensions were centrifuged at 1,000 rpm for approximately 5 minutes. Resulting cell pellets were re-suspended in growth media and placed in a 37 °C water bath for approximately 10 minutes prior to a final spin at 1,000 rpm. Following this spin the resulting cell pellets were re-suspended in assay buffer, 142 mM NaCl (or 142 mM choline chloride), 5 mM KCl, 1.2 mM MgSO4, 1.5 mM CaCl, 5 mM glucose and 25 mM HEPES pH 7.4. Cell suspensions were counted and the concentration adjusted as needed with assay buffer to 2e[6] viable cells /mL. 20 μL of cell suspension were added to 384-well cyotstar-T plates followed by the addition of 5 μL of 10× concentration of compound. Cells and compound were incubated at 37 °C for approximately 30 minutes prior to the addition of 25 μL of 300 μM citric acid (16 μM radiolabeled [^14C]-citric acid and 284 μM cold citric acid) to make a 150 μM final concentration of citric acid or 21 μM [^14C]-succinic acid. After substrate addition, the uptake of radioactivity was monitored on Perkin Elmer Microbeta plate reader. Data from reads between 45–90 minutes was used to assess the ability of test compounds to inhibit the uptake of citric or succinic acid. […]
(§8) were plated, and incubated for 48 hours. Following the incubation, NaDC1 and NaDC3 assays were executed identical to the procedure for NaCT. […]
(§9) The solution was heated to reflux until the total volume was reduced to ~25 mL. […]

[7] = target: T2, NaDC1 (SLC13A2) (Homo sapiens, UniProt Q13183); experiment: Inhibition of citrate or succinate uptake in HEKNaDC1 cells; format: cell-based; conditions: compound 4: mean of 2 replicates
T2 construct: host or cells: HEK-293, transient (Fugene HD)
T2 sequence (Q13183 1-592): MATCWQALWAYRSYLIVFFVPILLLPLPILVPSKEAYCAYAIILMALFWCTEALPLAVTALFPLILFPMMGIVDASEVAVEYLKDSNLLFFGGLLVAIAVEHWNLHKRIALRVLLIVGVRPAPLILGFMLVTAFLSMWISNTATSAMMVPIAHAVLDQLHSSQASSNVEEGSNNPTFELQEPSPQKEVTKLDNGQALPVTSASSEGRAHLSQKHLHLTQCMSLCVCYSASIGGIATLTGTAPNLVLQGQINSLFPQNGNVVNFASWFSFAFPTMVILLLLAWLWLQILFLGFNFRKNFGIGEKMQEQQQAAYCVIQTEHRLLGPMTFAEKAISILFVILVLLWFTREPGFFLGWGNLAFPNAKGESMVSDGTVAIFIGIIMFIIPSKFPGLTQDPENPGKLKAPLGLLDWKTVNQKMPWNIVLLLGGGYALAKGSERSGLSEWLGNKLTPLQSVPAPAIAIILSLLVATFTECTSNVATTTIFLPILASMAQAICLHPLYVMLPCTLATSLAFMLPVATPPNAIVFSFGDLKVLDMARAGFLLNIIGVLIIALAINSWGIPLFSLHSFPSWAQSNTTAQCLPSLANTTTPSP
Source text: as §7, §8, §9

[8] = Stability in human hepatocytes; format: in vitro ADME; conditions: metabolically competent human hepatocytes
[9] = target: T3, NaCT in cryopreserved human hepatocytes (Homo sapiens, UniProt Q86YT5); experiment: Inhibition of citrate uptake in cryopreserved human hepatocytes; format: cell-based; conditions: geometric mean of at least 3 replicates
T3 construct: the transporter was in its native environment, we used cryopreserved human hepatocytes; endogenous in cells; host or cells: cryopreserved human hepatocytes
T3 sequence (Q86YT5 whole entry): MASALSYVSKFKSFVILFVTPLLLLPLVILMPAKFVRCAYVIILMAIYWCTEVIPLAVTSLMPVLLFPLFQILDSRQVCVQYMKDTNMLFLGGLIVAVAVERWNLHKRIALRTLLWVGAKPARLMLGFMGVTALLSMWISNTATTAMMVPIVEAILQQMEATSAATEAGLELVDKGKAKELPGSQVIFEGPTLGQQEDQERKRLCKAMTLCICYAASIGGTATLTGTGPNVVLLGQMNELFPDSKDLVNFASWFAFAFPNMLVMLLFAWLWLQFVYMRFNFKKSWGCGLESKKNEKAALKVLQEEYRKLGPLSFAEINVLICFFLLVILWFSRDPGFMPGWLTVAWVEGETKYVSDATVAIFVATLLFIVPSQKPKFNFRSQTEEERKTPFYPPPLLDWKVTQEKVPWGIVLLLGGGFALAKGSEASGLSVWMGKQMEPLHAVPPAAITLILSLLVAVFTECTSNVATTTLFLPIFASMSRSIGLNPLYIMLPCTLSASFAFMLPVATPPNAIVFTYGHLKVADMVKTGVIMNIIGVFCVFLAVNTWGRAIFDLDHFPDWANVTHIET

[10] = target: NaCT (SLC13A5) (Homo sapiens, UniProt Q86YT5); experiment: Inhibition of citrate uptake in HEKNaCT cells; format: cell-based; conditions: geometric mean of at least 3 replicates
Chain of NaCT (SLC13A5) (Q86YT5 whole entry): as above
Description: HEK-293 cells stably transfected with the human sodium Citrate transporter SLC13A5 or transiently transfected with the human SLC13A2 or SLC13A3 transporter were removed from the flasks with dissociation buffer and re-suspended in an equal volume of growth media (DMEM, High Glucose supplemented with 10% heat inactivated fetal bovine serum and 500 μg/ml Geneticin). For the transient transfections, Geneticin was eliminated from the media. Cell suspensions were centrifuged at 1,000 rpm for approximately 5 minutes. Resulting cell pellets were re-suspended in growth media and placed in a 37 °C water bath for approximately 10 minutes prior to a final spin at 1,000 rpm. […] Cell suspensions were counted and the concentration adjusted as needed with assay buffer to 2e[6] viable cells /mL. 20 μL of cell suspension were added to 384-well cyotstar-T plates followed by the addition of 5 μL of 10× concentration of compound. […] After substrate addition, the uptake of radioactivity was monitored on Perkin Elmer Microbeta plate reader. Data from reads between 45–90 minutes was used to assess the ability of test compounds to inhibit the uptake of citric or succinic acid.

[11] = Stability in assay media; format: in vitro ADME; conditions: read-out: t1/2 in assay media
[12] = system: HEKNaCT cells; experiment: Stability in HEKNaCT cells; format: in vitro ADME, human; conditions: data not shown
[13] = Passive permeability, MDCK-LE cell monolayer; format: in vitro ADME; conditions: dog, MDCK; read-out: Papp (passive permeability)
Description: Passive permeability was assessed using MDCK-LE cell monolayer as described previously in Di et al., (2011)[44].

[14] = system: parental HEK-293 cells; experiment: Whole cell binding experiments with [3H]-2, parental HEK-293 cells; parameters: species or system human; conditions: 75 nM
Description: Parental HEK-293 cells or HEK-293 cells expressing SLC13A5 were incubated with [^3H]-2 at 75 nM. See supplemental methods for additional details. […]
were plated, and incubated for 48 hours. Following the incubation, NaDC1 and NaDC3 assays were executed identical to the procedure for NaCT.
Binding experiments with [3H]-2. Parental HEK-293 cells or cells overexpressing SLC13A5 were incubated in the media with 75 nM of [3H]-2. These cells were also incubated with either 0, […]
was monitored for 2-hours. The uptake of radioactivity was monitored on Perkin Elmer Microbeta plate reader. In experiments in which cold 2 was added to the media, after 2-hours, the cells were washed 3x with PBS, and then in fresh media 100 μM cold 2 was added for 2-hours and the disappearance of radioactivity was monitored using a Perkin Elmer Microbeta […]
Intra- and extracellular concentrations of compound in cellular assays. kpuu values were determined by measuring total cell and media concentrations corrected for their respective fraction unbound. Detailed methods to determine intra- and extracellular concentrations of […]
Crystallization and X-ray analysis of (S)-2-(4-(tert-butyl)phenethyl)-2-hydroxysuccinic […]
Crystallization conditions. Ethyl acetate (50 mL) was added to (S)-2-(4-(tert-butyl)phenethyl)- 2-hydroxysuccinic acid (3) ([…], 46.2 mmol). The suspension turned to a solution upon heating. […]

- Kp uu at 1 h, 1 µM [3]: 0.4 ± 0.1
- Kp uu at 1 h, 1 µM [4]: 0.6 ± 0.2
SMILES: CC(C)(C)c1ccc(CC[C@](O)(CC(=O)O)C(=O)O)cc1 [Compound 3, (S)-2-(4-(tert-butyl)phenethyl)-2-hydroxysuccinic acid]
- effect on citrate induced increase in oxygen consumption rate (OCR) [2]: not
- effect on citrate suppressed extracellular acidification rate (ECAR) ([2]; citrate): not
- label incorporation in TAG [5]: not

- IC50 [6]: 3.2 µM
- IC50 [7]: 5.5 µM
SMILES: O=C(O)C[C@](O)(CCc1ccc(I)cc1)C(=O)O [Compound 4]

- half-life [8]: 29 min
- IC50 [9]: 6.76 µM
- IC50 [10]: > 25 µM
- half-life [11]: > 120 min
- stability in HEKNaCT cells [12]: stable
- Papp [13]: 13 ×10⁻⁶ cm/s
SMILES: CCOC(=O)[C@@](O)(CCc1ccc(C(C)(C)C)cc1)CC(=O)O [Compound 5]

Further lines, the compound ahead of its results:

SMILES: CC(C)(C)c1ccc(CCC(O)(CC(=O)O)C(=O)O)cc1 (stereo not drawn) [Compound 1]
- cellular toxicity (CellTiter-glo assessment) [1]: No cellular toxicity

SMILES: [3H]C([3H])(c1ccc(C(C)(C)C)cc1)C([3H])([3H])[C@@](O)(CC(=O)O)C(=O)O [[^3H]-2]
- interaction with parental HEK-293 cells [14]: no significant interaction
